Laboratory results from US4920215A, “Antibiotic produced by fermentation” (Pfizer Inc., priority 1987, dated 1990).

Tested on: rumen fluid
Assay: In vitro rumen technique, propionic acid production
Details: 16 h, pH 6.8, read-out: increase of propionic acid over the control

CC[C@@H](C(=O)[C@@H](C)[C@@H](O)[C@H](C)[C@@H]1O[C@@H]([C@@H](CC)C(=O)O)CC[C@@H]1C)[C@H]1O[C@]2(C=C[C@@H](O)[C@]3(CC[C@@](C)([C@H]4CC[C@](O)(CC)[C@H](C)O4)O3)O2)[C@H](C)C[C@@H]1C [salinomycin]
activation at 10 µg/mL: ~61%
